# Results from patent US20210393610A1, “COMPOSITIONS AND METHODS FOR TREATING GOUT AND HYPERURICEMIA” (Jiangsu Hengrui Medicine Co., Ltd., priority 2018, published 2021).
# Columns and labels:
# [1] = PK interaction of the compound of Formula I-1, febuxostat and colchicine (PK parameters in plasma); conditions: for AUC: plasma, oral, AUCss of the compound of Formula I-1, geometric mean
# Protocol: (§1) The subjects were screened and examined on D-21 to D-15. 0.5 mg of colchicine once a day (qd) were orally administered to those who passed the screening on an empty stomach (D-14 to D16). If the subject was receiving an uric acid-lowering therapy (including allopurinol, febuxostat, benzbromarone, probenecid and the like) at the time of screening, the drug should be withdrawn for at least 2 weeks before D1. The subjects were admitted to the phase I clinical trial ward on D-2, and medical history inquiry, physical examination, vital signs examination, 12-lead electrocardiogram (ECG) examination, blood pregnancy examination (for female of childbearing age) were conducted again [if D-2 was more than 20 days away from the screening period, then blood examination, urine routine examination, CK\CK-MB, blood biochemistry (including serum creatinine and uric acid) examination were also required].
# During the hospital stay, the subjects were fasted for more than 10 hours after dinner everyday (with free access to water). […] On D2, the subjects on an empty stomach were subjected to blood sampling, followed by having a standard meal which should be eaten within 20 minutes. Except for before the drug administration and 1 hour after the drug administration, water was consumed as needed at other times. On D3 to 8, no less than 2 L of water was consumed daily. On D9, the subjects can be discharged from the hospital after completing relevant examinations and operations, with a total hospital stay of 10 days. On D16 to 23, the subjects came back to the phase I clinical trial ward for follow-up. Throughout the study period, the subjects should avoid strenuous exercise and prolonged bed rest. The drug administration scheme is detailed in Table 1.
# Colchicine tablets: D-14 to D16, 0.5 mg qd, orally administered on an empty stomach; Febuxostat tablets: D1 and D8, 80 mg qd, orally administered on an empty stomach; Tablets of the compound of Formula I-1: D3 to D8, 10 mg qd, orally administered on an empty stomach.
# G. Main Observation Indicator • i. PK parameters of the compound of Formula I-1, febuxostat (Ruiyang®) and colchicine in plasma.
# serum uric acid (sUA) = assay: PD interaction: serum uric acid (sUA) level after separate and combined administration; type: in vivo, patients suffering from gout
# Protocol: as §1
# During the hospital stay, the subjects were fasted for more than 10 hours after dinner everyday (with free access to water). […] On D2, the subjects on an empty stomach were subjected to blood sampling, followed by having a standard meal which should be eaten within 20 minutes. Except for before the drug administration and 1 hour after the drug administration, water was consumed as needed at other times. On D3 to 8, no less than 2 L of water was consumed daily. […]
# sUA = conditions: after 6 months; febuxostat alone group; cited from earlier work
# [2] = febuxostat alone group v.s. lesinurad 400 mg plus febuxostat group; cited from earlier work
# [3] = combined administration with febuxostat 80 mg
# [4] = combined administration with the compound of Formula I-1, no statistical difference (P>0.05)
# [5] = impact of compound of Formula I-1 on colchicine
# [6] = impact of febuxostat on colchicine
# [7] = single administration (colchicine 0.5 mg qd)
# [8] = impact of febuxostat on the compound of Formula I-1
smiles,measurement,setting,value
COc1cc2c(c(OC)c1OC)-c1ccc(OC)c(=O)cc1[C@@H](NC(C)=O)CC2 [colchicine],"Css, max of colchicine, geometric mean",[1]; combined administration with compound of Formula I-1 10 mg qd,2.2048 ng/mL
same,"AUCss of colchicine, geometric mean",[1]; [3],18.3270 ng·h/mL
same,"Css, max of colchicine, geometric mean",[1]; [3],2.2601 ng/mL
same,"decrease of Css,max of colchicine","[1]; combined administration with febuxostat, no statistical difference (P>0.05)",9.92%
same,decrease of AUCss of colchicine,[1]; [4],9.84%
same,"decrease of Css,max of colchicine",[1]; [4],12.12%
same,"AUCss of colchicine, Ratio (combined administration vs single administration)",[1]; [5],90.16%
same,"Css, max of colchicine, Ratio (combined administration vs single administration)",[1]; [5],87.88%
same,"AUCss of colchicine, Ratio (combined administration vs single administration)",[1]; [6],99.43%
same,"Css, max of colchicine, Ratio (combined administration vs single administration)",[1]; [6],90.08%
same,"AUCss of colchicine, geometric mean",[1]; [7],18.4329 ng·h/mL
same,"Css, max of colchicine, geometric mean",[1]; [7],2.5089 ng/mL
O=C([O-])C1(Sc2ccnc3ccc(Br)cc23)CCC1.[Na+] [compound of Formula I-1],average maximum reduction of serum sUA concentration,"serum uric acid (sUA); compound of Formula I-1 10 mg qd administered sequentially, relative to baseline (D3-0 h)",60.883%
same,effect of febuxostat on the steady-state exposure level of the compound of Formula I-1,[1]; combined administration of febuxostat and the compound of Formula I-1,substantially no effect
same,"Css, max of the compound of Formula I-1, geometric mean",[1]; combined administration with febuxostat 80 mg (colchicine background),1687.45 ng/mL
same,AUC,"[1]; human, combined administration with febuxostat 80 mg (colchicine background)",14700 ng·h/mL
same,AUC,"[1]; human, single administration, 10 mg qd (colchicine 0.5 mg qd background)",14400 ng·h/mL
same,"AUCss of the compound of Formula I-1, Ratio (combined administration vs single administration)",[1]; [8],102.31%
same,"Css, max of the compound of Formula I-1, Ratio (combined administration vs single administration)",[1]; [8],101.68%
same,"Css, max of the compound of Formula I-1, geometric mean","[1]; single administration, 10 mg qd (colchicine 0.5 mg qd background)",1659.60 ng/mL
Cc1nc(-c2ccc(OCC(C)C)c(C#N)c2)sc1C(=O)O [febuxostat],proportion of patients who achieved sUA<5.0 mg/dl,sUA,46.8%
same,average maximum reduction of serum uric acid (sUA) concentration,"serum uric acid (sUA); single administration of febuxostat 80 mg, compared with single administration of colchicine at steady state",22.144%
same,"AUC0-last of febuxostat, Ratio (combined administration vs single administration)","[1]; human, in vivo",88.54%
same,"Cmax of febuxostat, Ratio (combined administration vs single administration)","[1]; human, in vivo",86.42%
same,incidence of kidney-related adverse events,[2],5.5%
same,serum creatinine increased ≥ 1.5 times the baseline,[2],2.8%
same,serum creatinine increased ≥2 times the baseline,[2],0%
